One series relates to normal cells. The series is described as follows: Activity on normal cells. It is filed as cell-based.
Series [1] in a line: Maximum tolerated dose in mice. As to conditions: mouse, in vivo, intravenous. The procedure: Determination of maximum tolerated dose (MTD). Mice at 8 weeks of age were pair-matched into groups of 5-8 animals and preliminary toxicity studies were performed with unknown test compounds. Animals were treated i.v. daily for 10 consecutive days with test compound and were weighed twice weekly. Mice were examined frequently for clinical signs of any adverse drug-related effects. Acceptable toxicity for anti-cancer drugs in mice is defined by the NCl as no mean group weight loss of over 20% and not more than 10% toxic death in treated animals.

Series [2] has as its system NCI panel of 60 cell lines. In words: cells. The method, boiled down:
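Cells in RPMI-1640/10% FCS plated at 5,000–40,000 cells/well, preincubated 24 h at 37° C, 5% CO2, then exposed 48 h to compound at 5 doses spanning 4 logs. Viability by sulforhodamine B total-protein staining after cold TCA fixation; absorbance read at 515 nm.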

Another series can be described thus: Aqueous solubility. Type of series: physicochemical. As to conditions: water (aqueous solution).
Series [3] in a line: MTD/toxicity study in rats. As to conditions: 50-80 mg/kg i/v, QDx5/2/5 schedule. It is filed as in vivo. The procedure:
A similar scheme can also be employed in experimental rats and other animals. For example, to determine MTD in rats, 50-80 mg/kg of A37 was dosed i/v in a QDx5/2/5 schedule.

Another series concerns PC3 xenograft. The series is described as follows: PC3 xenograft tumor model. Details: species or system mice. As to conditions: mouse, in vivo. How it is done: Drugs. Compounds of the invention were synthesized and prepared for i.v. administration in a biocompatible vehicle. CPT-11 (Camptosar®, Pharmacia) was obtained as the pharmaceutical drug and was prepared in 5% dextrose-water (D5W). All preparations were made fresh weekly and injection volumes were adjusted to body weight (0.2 ml/20 g mouse).
Mice/Husbandry. Female nu/nu mice were obtained from Charles River, housed in static microisolators, and provided ad libitum with water and an irradiated standard rodent diet (Purina Pico-Lab Rodent Diet 20).
Standard Protocol. […] Animals were initially monitored twice weekly for tumor growth and then daily as the implants approached the desired size of approximately 100 mm^3. When the tumors grew to between 62-221 mg in calculated tumor weight, the animals were pair-matched into appropriate experimental treatment groups (8-10 animals/group) and treatment with test compounds was initiated. […] Tumor weights were calculated and body weights were taken twice weekly and animals were observed frequently for adverse drug effects. […]
Tumors were measured by determining the length and width of the tumor with a digital caliper. […]
Log cell kill (LCK) is a calculation that determines the percentage of tumor cells that are killed after the initiation of treatment and can be used as a quantitative measure of efficacy: […]

≈ marks a conversion by molar mass, not a printed value. Counter-ions that a name gives are not always drawn. Like-named read-outs stand apart in the source and are kept apart here.

In the case of `COCCN1CCN(Cc2ccc(-c3n[nH]c4c3C(=O)c3c(NC(=O)NN5CCOCC5)cccc3-4)cc2)CC1` [Compound B16, N-[3-(4-{[4-(2-methoxyethyl)piperazinyl]methyl}phenyl)-4-oxoindeno[2,3-d]pyrazol-5-yl](morpholin-4-ylamino)carboxamide dihydrochloride], in the series on normal cells, the IC50 (in general, the point on the concentration scale where inhibition reaches its midpoint) came to 10.9 µM. Besides, the MTD was 40 mg/kg in series [1] (CD-1 mice, read-out: MTD, 5/2/5 dose) and approximately 120 mg/kg in series [1] (nu/nu mice, read-out: MTD, single dose). The MTD at 5 days in series [1] (nu/nu mice) is approximately 100 mg/kg.
Consider `CC(C)N1CCN(C(=O)COc2ccc(-c3n[nH]c4c3C(=O)c3c(NC(=O)NN5CCOCC5)cccc3-4)cc2)CC1` [Compound A37], for which, in series [2], the “NCI assay Ave TGI” value stood at 2.06 µM. Further, in the series “Aqueous solubility”, the solubility (in general, the dissolved amount per volume that the medium holds) was in the range of 15 to 20 mg/mL (≈ 26.1 to 34.9 mM). Moreover, the cardiotoxicity entry in series [3] is recorded as “did not induce cardiotoxicity”. The “efficacy in PC3 xenograft tumor model” value in the series on PC3 xenograft was “high efficacy”.
